In patent US6627774B2, “N-deacetylthiocolchicine derivatives and pharmaceutical compositions containing them” (Indena S.p.A., priority 2001, dated 2003):

Test system: MCF7-ADRr
Assay type: cell-based
Experimental: The cytotoxic activity was evaluated according to M. C. Alley et al., Cancer Research, 48, 589-601, […].

`COc1cc2c(c(OC)c1OC)-c1ccc(SC)c(=O)cc1[C@@H](NC(C)=O)CC2` [Thiocolchicine] showed an MCF7-ADRr/MCF7 of 20000.
